Bounds are passed on as bounds.

One assay relates to MCF-7 cells. As to the kind of experiment: MTT cell viability assay, MCF-7. The settings on record: Homo sapiens, MCF7, 72 h, read-out: IC50 MCF-7. Background: Tetrazolium dyes change colour on reduction, which living cells bring about.
A further assay deals with MDA-MB-468 cells. As to the kind of experiment: MTT cell viability assay, MDA-MB-468. As to conditions: Homo sapiens, MDA-MB-468, 72 h, read-out: IC50 MDA-MB-468.
The next assay relates to MDA-MB-436 cells. The assay can be described thus: MTT cell viability assay, MDA-MB-436. As to conditions: Homo sapiens, MDA-MB-436, 72 h, read-out: IC50 MDA-MB-436.
In another assay the test system is MCF-10A cells. As to the kind of experiment: MTT cell viability assay, MCF-10A. The settings on record: Homo sapiens, 72 h, read-out: IC50 MCF-10A.
Another assay concerns the target T1, PARP1 (Homo sapiens, UniProt P09874).
T1 construct: purchased BPS Bioscience 80580
The assay can be described thus: PARP1 enzymatic inhibition assay (PARP1 Colorimetric Assay Kit). It counts as biochemical. The method, then:
(§1) Briefly, the 1× histone mixture was added to each well and incubated overnight at 4 °C. Each well was washed three times with 200 µL 1× TBST buffer and filled with 200 µL Blocking buffer at room temperature for 90 min. Then, each well was filled with 25 µL of PARP master mixture (5 μL activated DNA + 2.5 μL 10× PARP Assay mixture + 2.5 μL 10× PARP buffer + 15 μL distilled water). Next, 5 µL of the compound of different concentrations was added to each well, and PARP enzyme was added and incubated at room temperature for 1 h. Next, streptavidin HRP solution was added and incubated at room temperature for 30 min. After adding 100 µL of colorimetric HRP substrate to each well, the plate was incubated until a blue color developed in the positive well, which contained PARP enzyme without inhibitors. The reaction was then quenched with 2 M sulfuric acid, and absorbance at 450 nm was measured using a microplate reader (BioTek, Winooski, VT, USA). After calculating the inhibition rate, the IC50 value was determined.

For the next assay, the target named is T2, recombinant HDAC6 (Homo sapiens, UniProt Q9UBN7).
T2 construct: purchased BPS Bioscience
T2 sequence (Q9UBN7 1-1215): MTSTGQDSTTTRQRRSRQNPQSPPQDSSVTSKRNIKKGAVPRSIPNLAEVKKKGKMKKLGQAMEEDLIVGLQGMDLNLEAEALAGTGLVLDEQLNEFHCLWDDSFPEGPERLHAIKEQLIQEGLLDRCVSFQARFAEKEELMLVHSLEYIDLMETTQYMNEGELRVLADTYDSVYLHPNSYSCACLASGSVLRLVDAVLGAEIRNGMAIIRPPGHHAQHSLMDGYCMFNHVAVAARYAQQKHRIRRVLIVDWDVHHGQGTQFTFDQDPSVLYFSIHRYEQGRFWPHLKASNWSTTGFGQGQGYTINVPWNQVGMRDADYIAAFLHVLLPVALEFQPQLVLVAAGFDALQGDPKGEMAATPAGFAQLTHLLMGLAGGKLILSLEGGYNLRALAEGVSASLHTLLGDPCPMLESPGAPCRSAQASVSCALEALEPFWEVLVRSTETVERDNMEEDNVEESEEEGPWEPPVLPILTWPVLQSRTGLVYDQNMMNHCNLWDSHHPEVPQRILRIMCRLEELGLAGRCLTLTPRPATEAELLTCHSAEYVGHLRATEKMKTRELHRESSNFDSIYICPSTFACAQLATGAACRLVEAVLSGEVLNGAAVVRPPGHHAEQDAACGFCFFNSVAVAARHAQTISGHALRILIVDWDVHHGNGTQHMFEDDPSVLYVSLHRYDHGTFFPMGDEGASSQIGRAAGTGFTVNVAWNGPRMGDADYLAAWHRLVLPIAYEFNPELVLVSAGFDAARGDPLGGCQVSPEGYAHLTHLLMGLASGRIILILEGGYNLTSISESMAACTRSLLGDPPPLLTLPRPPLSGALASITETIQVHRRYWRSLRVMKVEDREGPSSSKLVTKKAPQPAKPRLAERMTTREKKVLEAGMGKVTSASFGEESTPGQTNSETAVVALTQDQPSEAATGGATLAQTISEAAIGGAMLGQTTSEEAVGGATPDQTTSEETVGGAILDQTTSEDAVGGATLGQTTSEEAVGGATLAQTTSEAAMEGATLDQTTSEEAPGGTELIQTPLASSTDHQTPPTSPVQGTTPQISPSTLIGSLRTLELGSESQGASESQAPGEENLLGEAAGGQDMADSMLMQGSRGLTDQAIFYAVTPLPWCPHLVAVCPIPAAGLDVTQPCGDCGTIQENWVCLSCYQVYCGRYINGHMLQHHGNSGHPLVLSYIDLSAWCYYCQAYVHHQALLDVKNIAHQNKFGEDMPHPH
The assay can be described thus: HDAC6 inhibition assay (Ac-peptide-AMC fluorescence). The class given is biochemical. The method, then:
(§2) The in vitro HDAC inhibition assays were carried out by Sundia MediTech Co. Ltd. in Shanghai, China. […] Reactions were stopped with trypsin, and the samples were incubated for another 90 min at 37 °C. […] IC50 values were obtained using GraphPad Prism software.

In a further assay the test system is MDA-MB-231 cells. The assay can be described thus: MTT cell viability assay, MDA-MB-231. The settings on record: Homo sapiens, MDA-MB-231, 72 h, read-out: IC50 MDA-MB-231.
Another assay deals with T3, PARP2 (Homo sapiens, UniProt Q9UGN5).
T3 construct: purchased BPS Bioscience 80581
As to the kind of experiment: PARP2 enzymatic inhibition assay (PARP2 Colorimetric Assay Kit). It counts as biochemical. As to the method:
as §1

A further assay deals with T4, recombinant HDAC1 (Homo sapiens, UniProt Q13547).
T4 construct: purchased Active Motif
As to the kind of experiment: HDAC1 inhibition assay (Ac-peptide-AMC fluorescence). It counts as biochemical. The method, then:
as §2

A further assay concerns RAD51. The assay can be described thus: Western blot of RAD51 expression in TNBC cells. It counts as cell-based, human. The settings on record: alone, 24 h, TNBC cell lines. As to the method:
Western blot analysis was performed as previously described, and all western blot analyses were performed at least three times.
Western blot analysis was performed as previously described. Briefly, whole cell or tissue lysates were prepared using ice-cold Nonidet P-40 buffer mixed with protease and phosphatase inhibitors (Roche, IN, USA) and centrifuged at 14,000 × g at 4 °C for 10 min. The protein lysates were fractionated by sodium dodecyl sulfate–polyacrylamide gel electrophoresis (SDS–PAGE) and transferred to polyvinylidene fluoride (PVDF) membranes (Merck, Darmstadt, Germany). Membranes were incubated in 1× TBST buffer containing 5% nonfat powdered milk at room temperature for 2 h. The indicated primary antibody was incubated with PVDF membranes, followed by a washing step using 1× TBST and a secondary antibody conjugated to HRP. Signal detection was carried out using the Western ECL Substrate kit (Bio-Rad, Hercules, CA, USA). […]
A general note: A western blot detects proteins with antibodies after separation by electrophoresis.

T4 sequence (Q13547 whole entry): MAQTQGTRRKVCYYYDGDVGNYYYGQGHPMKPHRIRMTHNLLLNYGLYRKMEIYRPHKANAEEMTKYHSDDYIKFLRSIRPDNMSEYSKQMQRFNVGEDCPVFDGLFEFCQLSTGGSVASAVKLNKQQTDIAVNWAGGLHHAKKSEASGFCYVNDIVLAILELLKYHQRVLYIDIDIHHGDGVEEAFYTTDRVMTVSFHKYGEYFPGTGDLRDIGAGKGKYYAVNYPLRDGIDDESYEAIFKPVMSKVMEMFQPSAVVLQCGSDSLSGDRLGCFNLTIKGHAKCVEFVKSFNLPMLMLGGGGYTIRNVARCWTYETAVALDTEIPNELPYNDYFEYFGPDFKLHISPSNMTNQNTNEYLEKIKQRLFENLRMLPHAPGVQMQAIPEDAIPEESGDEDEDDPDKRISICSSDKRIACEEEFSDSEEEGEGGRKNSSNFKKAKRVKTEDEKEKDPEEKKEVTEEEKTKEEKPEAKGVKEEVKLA
T1 sequence (P09874 whole entry): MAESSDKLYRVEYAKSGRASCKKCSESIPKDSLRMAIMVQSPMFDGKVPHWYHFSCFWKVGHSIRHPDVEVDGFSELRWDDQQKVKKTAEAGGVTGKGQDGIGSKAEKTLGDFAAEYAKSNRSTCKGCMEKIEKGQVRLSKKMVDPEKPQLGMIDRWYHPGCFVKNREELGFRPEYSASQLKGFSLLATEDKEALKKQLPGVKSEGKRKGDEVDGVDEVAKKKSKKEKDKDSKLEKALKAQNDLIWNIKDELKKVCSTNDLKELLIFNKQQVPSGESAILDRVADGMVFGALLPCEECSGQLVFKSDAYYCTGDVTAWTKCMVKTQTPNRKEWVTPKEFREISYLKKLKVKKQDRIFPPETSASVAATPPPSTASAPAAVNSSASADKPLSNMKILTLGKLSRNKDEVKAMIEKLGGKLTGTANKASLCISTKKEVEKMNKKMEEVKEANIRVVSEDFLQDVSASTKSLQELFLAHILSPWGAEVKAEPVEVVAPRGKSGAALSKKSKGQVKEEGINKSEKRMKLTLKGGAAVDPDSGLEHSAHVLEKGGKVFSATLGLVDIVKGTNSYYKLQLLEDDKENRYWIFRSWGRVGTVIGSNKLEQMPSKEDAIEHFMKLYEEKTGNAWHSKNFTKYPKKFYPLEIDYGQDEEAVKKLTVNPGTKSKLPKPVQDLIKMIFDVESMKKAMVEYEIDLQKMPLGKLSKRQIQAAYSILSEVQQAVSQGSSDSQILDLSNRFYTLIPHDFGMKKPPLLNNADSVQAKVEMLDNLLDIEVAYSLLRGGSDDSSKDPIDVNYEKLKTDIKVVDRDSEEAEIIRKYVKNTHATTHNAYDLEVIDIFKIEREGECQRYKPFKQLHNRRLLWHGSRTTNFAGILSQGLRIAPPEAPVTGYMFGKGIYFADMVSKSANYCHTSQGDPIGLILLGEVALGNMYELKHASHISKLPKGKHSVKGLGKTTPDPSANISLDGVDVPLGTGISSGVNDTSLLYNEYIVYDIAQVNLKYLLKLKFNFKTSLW
T3 sequence (Q9UGN5 whole entry): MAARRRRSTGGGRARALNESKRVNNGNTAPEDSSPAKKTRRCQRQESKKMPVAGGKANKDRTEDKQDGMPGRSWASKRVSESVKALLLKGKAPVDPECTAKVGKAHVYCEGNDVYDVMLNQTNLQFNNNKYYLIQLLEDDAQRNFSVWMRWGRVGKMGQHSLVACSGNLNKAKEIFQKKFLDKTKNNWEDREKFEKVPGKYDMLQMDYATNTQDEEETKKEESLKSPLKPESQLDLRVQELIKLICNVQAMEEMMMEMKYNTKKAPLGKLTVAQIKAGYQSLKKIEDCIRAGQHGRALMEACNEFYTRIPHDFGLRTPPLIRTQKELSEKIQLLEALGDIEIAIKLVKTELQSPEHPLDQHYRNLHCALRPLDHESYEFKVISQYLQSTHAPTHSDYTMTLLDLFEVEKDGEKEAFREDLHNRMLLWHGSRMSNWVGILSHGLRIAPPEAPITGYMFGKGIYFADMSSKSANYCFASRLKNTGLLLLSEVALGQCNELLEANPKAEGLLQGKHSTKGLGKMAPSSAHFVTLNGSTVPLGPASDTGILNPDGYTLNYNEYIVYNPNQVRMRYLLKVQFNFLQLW
Protocol for MCF-10A cells: (§3) The viability assay was measured by a 3-(4,5-dimethylthiazol-2-yl)−2,5-diphenyltetrazolium bromide (MTT) assay.
(§4) In brief, cells were seeded at a density of 6,000 cells in 96-well plates and cultured overnight. […] After aspiration of the medium, the formazan crystals were dissolved in 100 μL of DMSO. The absorbance at 490 nm was measured using a microplate reader (BioTek). All these analyses were performed at least three times.
Protocol for MCF-7 cells: as §3, §4
Protocol for MDA-MB-231 cells: as §3, §4
Protocol for MDA-MB-436 cells: as §3, §4
Protocol for MDA-MB-468 cells: as §3, §4

`Nc1cc(F)ccc1NC(=O)Cc1ccc(CN2CCN(C(=O)c3cc(Cc4n[nH]c(=O)c5ccccc45)ccc3F)CC2)cc1` [Compound B202]: the IC50 in the assay on MCF-7 cells is 15600 ± 3520 nM; in the assay on MDA-MB-468 cells, 560 ± 100 nM; in the assay on MDA-MB-436 cells it was 650 ± 140 nM; with MCF-10A cells, 9830 ± 750 nM; against PARP1, 10.3 nM; at recombinant HDAC6, more than 10000 nM. For the same compound, the values for the IC50 with MDA-MB-231 cells, on PARP2 and at recombinant HDAC1 were 460 ± 120 nM, 34.2 nM and 160 nM, respectively.

Consider `Nc1cc(F)ccc1NC(=O)CCCN1CCN(C(=O)c2cc(Cc3n[nH]c(=O)c4ccccc34)ccc2F)CC1` [Compound B602], for which the IC50 on recombinant HDAC6 and on recombinant HDAC1 was more than 10000 nM in each case.

`Nc1ccccc1NC(=O)/C=C/c1ccc(CN2CCN(C(=O)c3cc(Cc4n[nH]c(=O)c5ccccc45)ccc3F)CC2)cc1` [Compound B101]: the IC50 in the assay on MCF-7 cells was 3620 ± 1210 nM; with MDA-MB-468 cells, 300 ± 50 nM; in the assay on MDA-MB-436 cells it was 530 ± 80 nM; in the assay with MCF-10A cells it was 1450 ± 90 nM; at PARP1, 13.2 nM; on recombinant HDAC6, more than 10000 nM. Besides, the values for the IC50 in the assay on MDA-MB-231 cells, at PARP2 and on recombinant HDAC1 were 410 ± 10 nM, 4.08 nM and 120 nM, respectively.

Take `Nc1ccccc1NC(=O)CCc1ccc(CN2CCN(C(=O)c3cc(Cc4n[nH]c(=O)c5ccccc45)ccc3F)CC2)cc1` [Compound B301]: the IC50 was 3530 ± 1110 nM with MCF-7 cells; 1750 ± 370 nM in the assay on MDA-MB-468 cells; 1730 ± 820 nM in the assay with MDA-MB-436 cells; 30000 ± 9800 nM with MCF-10A cells; 11.4 nM at PARP1; more than 10000 nM on recombinant HDAC6. Besides, the IC50 in the assay with MDA-MB-231 cells is 1960 ± 630 nM; against PARP2, 70.4 nM; on recombinant HDAC1 it was more than 10000 nM.

Turning to `Nc1ccccc1NC(=O)CCCN1CCN(C(=O)c2cc(Cc3n[nH]c(=O)c4ccccc34)ccc2F)CC1` [Compound B601], the IC50 on recombinant HDAC6 and on recombinant HDAC1 was more than 10000 nM each time.

As for `Nc1ccccc1NC(=O)CN1CCN(C(=O)c2cc(Cc3n[nH]c(=O)c4ccccc34)ccc2F)CC1` [Compound B401], the IC50 on recombinant HDAC6 and at recombinant HDAC1 was more than 10000 nM each time.

`Nc1ccccc1NC(=O)Cc1ccc(CN2CCN(C(=O)c3cc(Cc4n[nH]c(=O)c5ccccc45)ccc3F)CC2)cc1` [Compound B201]: the IC50 with MCF-7 cells is 5300 ± 1230 nM; with MDA-MB-468 cells, 1350 ± 550 nM; with MDA-MB-436 cells, 970 ± 730 nM; with MCF-10A cells it was 14000 ± 2450 nM; against PARP1, 7.55 nM; at recombinant HDAC6, more than 10000 nM. The figures for the IC50 with MDA-MB-231 cells, against PARP2 and at recombinant HDAC1 were 380 ± 80 nM, 13.8 nM and 60 nM, respectively.

`Nc1cc(F)ccc1NC(=O)c1ccc(CNC(=O)/C=C/c2cccnc2)cc1` [Chidamide, chidamide, reference compound]: the IC50 in the assay on MCF-7 cells was 4600 ± 780 nM; in the assay with MDA-MB-468 cells, 750 ± 220 nM; in the assay with MDA-MB-436 cells, 4150 ± 920 nM; in the assay on MCF-10A cells, more than 50000 nM; in the assay with MDA-MB-231 cells, 2340 ± 920 nM. Besides, in the assay with RAD51, the RAD51 expression result is listed as “reduced the expression of RAD51”.

As to `Nc1cc(F)ccc1NC(=O)CCN1CCN(C(=O)c2cc(Cc3n[nH]c(=O)c4ccccc34)ccc2F)CC1` [Compound B502], the IC50 on recombinant HDAC6 and on recombinant HDAC1 was more than 10000 nM each time.

Turning to `Nc1ccccc1NC(=O)CCN1CCN(C(=O)c2cc(Cc3n[nH]c(=O)c4ccccc34)ccc2F)CC1` [Compound B501], the IC50 at recombinant HDAC6 and on recombinant HDAC1 was more than 10000 nM each time.

Regarding `Nc1cc(F)ccc1NC(=O)CN1CCN(C(=O)c2cc(Cc3n[nH]c(=O)c4ccccc34)ccc2F)CC1` [Compound B402], the IC50 at recombinant HDAC6 and on recombinant HDAC1 was more than 10000 nM throughout.

The IC50 is the concentration that gives 50% inhibition.

Values taken from PMC10770036, “Novel dual inhibitors of PARP and HDAC induce intratumoral STING-mediated antitumor immunity in triple-negative breast cancer” (Cell Death & Disease, 2024).
